Experiment [1] deals with SARS-CoV-2 Scotland variant (linage: B.1.222). Briefly: microbe, parasite or virus in culture. In kind it is cell-based. The settings on record: Severe acute respiratory syndrome coronavirus 2, Calu-3, read-out: IC50, inhibition of SARS-CoV-2 replication.
In experiment [2] the test system is SARS-CoV-2 South African variant (linage: B.1.351). Briefly: microbe, parasite or virus in culture. The class given is cell-based. Conditions: Severe acute respiratory syndrome coronavirus 2, Calu-3, read-out: IC50, inhibition of SARS-CoV-2 replication.

As for `CN1C(=O)c2ccccc2[S+]([O-])c2cc([N+](=O)[O-])ccc2S1(=O)=O` (stereo not shown) [MU-UNMC-1, 6-methyl-2-nitrodibenzo[d,g][1,6,2]dithiazocin-7(6H)-one 5,5,12-trioxide], the IC50 (usually the concentration that gives 50% inhibition) in experiment [1] was determined as 2640 nM; in experiment [2], 9270 nM.
For the molecule `O=C1Nc2cc(C(F)(F)F)ccc2Oc2ccsc21` [MU-UNMC-2, 7-(trifluoromethyl) benzo[b]thieno[2,3-f][1,4]oxazepin-10(9H)-one], the IC50 was found to be 1390 nM in experiment [1] and 3000 nM in experiment [2].
